Data reported in patent US20110028566A1, “COMPOSITIONS AND PRODUCTS CONTAINING CYCLOALIPHATIC DIOL ANTIMICROBIAL AGENTS AND METHODS OF USING THE COMPOSITIONS AND PRODUCTS” (EASTMAN CHEMICAL COMPANY, priority 2009, published 2011).
Where “and” joins values, the source holds several entries; their conditions need not be identical. Equal entries are not always repeated.

Assays:
Assay type in all cases: cell-based
[1] = test system: Escherichia coli ATCC 25922; assay: MIC determination and synergy testing (Kull synergy index), microplate; conditions: for QA, MIC of CHDM alone / QA/a: concentration of CHDM (MIC alone, or in the combination at an inhibitory concentration) / SI (synergy index) / QA/a: concentration of CHDM alone (QA, MIC) / QB/b: concentration of CG (MIC alone, or in the combination at an inhibitory concentration): E. coli; for QA/a: concentration of CHDM (MIC alone, or in the combination at an inhibitory concentration) / SI (synergy index) / QB/b: concentration of CG (MIC alone, or in the combination at an inhibitory concentration): plate 107A, CG and CHDM
Method: (§1) The test cultures are listed in Table 7 along with the incubation temperatures used for growth and minimum inhibitory concentration (MIC) testing. […] C. albicans was cultured in Sabouraud dextrose broth (SDB) for approximately 44-52 hours for preparation of inoculum. A. niger was cultured on Sabouraud dextrose agar (SDA) for 3-4 days until there was confluent growth and visible spore formation. Spores were harvested from the SDA plates by flooding the surface of the plate with 5-10 mL of phosphate-buffered saline (PBS) and gently spreading the liquid across the surface of the plate with a sterile T-shaped plastic spreader (Copan Diagnostics) until there was a well-mixed suspension of spores. The resulting spore suspension was collected using a serological pipette and stored at 2-8° C. until use.
(§2) Inoculum concentration was determined by dilution plating of the cultures or spore suspension. A serial dilution in PBS was made to 10^−8 for the bacterial cultures or 10^−5 for the fungal cultures. Fifty or 100 μL of the final dilution was spread on two Trypticase-soy agar (TSA) plates for bacteria or two SDA plates for fungi. After 24 to 48 hours plates were counted and the concentrations used in each experiment were calculated.
(§3) The antimicrobial agents tested for synergy along with the respective diluents and working stock solution concentrations are shown below. For determination of MIC ranges, individual antimicrobial agent stock solutions were added to sterile medium to yield the highest level test concentrations, and then serially diluted in the medium to prepare the range of test concentrations. For synergy testing individual test concentrations were prepared in sterile medium, and then blended to form the desired combinations.
(§4) MICs were determined using a high-throughput microplate method. Individual antimicrobial agents were added to TSB (pH 7.3) for bacterial testing or SDB (pH 5.6) for fungal testing at the highest concentration to be tested. A serial dilution series was prepared at a dilution ratio of 1:1.3333 such that a one log range was covered in nine dilutions. Two-hundred microliters of the diluted antimicrobial agents were dispensed into four wells each of a sterile, 96-well, flat-bottom microplate (Nalge Nunc International). Four additional wells of the highest concentration were dispensed to serve as uninoculated high-level controls. Eight additional wells containing only broth medium were also prepared, four to serve as negative controls and four as positive controls. Three wells of each antimicrobial agent dilution were inoculated with one of the test strains in Table 7. The final well of each antimicrobial agent dilution was left uninoculated to serve as a control (and means of compensating) for any absorbance/turbidity due to the test compounds.
Microplates were inoculated using the cultures or spore suspensions prepared as described above. The S. aureus cultures were used undiluted, while the E. coli and P. aeruginosa cultures were used either undiluted or after a 1:2 dilution in sterile TSB. The C. albicans cultures were used either undiluted or following a 2-fold concentration by centrifugation. One of two means of inoculation was used to deliver a final concentration of approximately 10^5 colony-forming units (CFU)/mL of C. albicans, 10^5 spores/mL of A. niger, or 10^6 CFU/mL of bacteria. The primary method used a stainless steel pin replicator (Nalge Nunc International) mounted on a hand-operated bench-top press (Schmidt Technology Corporation) fitted with a custom-built microplate holder to dispense one microliter of each inoculum from a “master” plate containing 50-100 μL of culture into the wells of the test plate. The pin replicator was sterilized before and between inoculations by immersing in ethanol and flaming. The alternative method of inoculation was by directly pipetting 20 μL of a 1:20 dilution of each culture or spore suspension into the appropriate wells of the test plates.

[2] = test system: biodiesel-acclimated bioslime; assay: 15-day biofouling control in B-100 biodiesel:Bushnell-Haas broth, visual turbidity; design: key to Growth (visual turbidity rating): 0 = No Growth; 1 = Slight Growth; 2 = Moderate Growth; 3 = Heavy Growth; conditions: 15 days, 22° C.; for Enhancement of the preservative (inhibitory) action of Killem biocide (in words): B-100 biodiesel, bioslime or trivalent bacterial-fungal inocula (Tables 54 & 55); for Growth (visual turbidity rating): biocide 0 mg/L, bioslime inoculum 50 uL
Method: (§5) Antimicrobial efficacy data (Table 54 & Table 55) were obtained for 1,4-CHDM with and without biocide in protection of B-100 biodiesel from microbial growth derived via either biodiesel-acclimated bioslime or trivalent bacterial-fungal inocula after 15-day exposure at 22° C. This testing was via a visual turbidity methodology. Neither micro-liter plates nor automatic plate reader could be used in this experiment due to the inherent biphasic nature of the system. B-100 biodiesel:Bushnell-Haas broth was used, which is a minimal salts medium specially designed for evaluating growth of microorganisms on hydrocarbons. Samples were evaluated visually (i.e., the more the turbidity, the more the growth, the less the turbidity, the less the growth, and no turbidity means no growth).

[3] = test system: trivalent bacterial-fungal inocula; assay: as above; design: key: 0 = No Growth; 1 = Slight Growth; 2 = Moderate Growth; 3 = Heavy Growth; conditions: biocide 0 mg/L, 15 days, 22° C., trivalent inoculum 50 uL
Method: as §5

[4] = test system: Aspergillus niger ATCC 16404; assay: MIC determination and synergy testing (Kull synergy index), microplate
Method: as §1, §2
The A. niger spore suspensions were concentrated to a level of 1-2×10^8 spores/mL by centrifugation and resuspension in a portion of the resulting supernatant.
as §3, §4
Microplates were inoculated using the cultures or spore suspensions prepared as described above. The S. aureus cultures were used undiluted, while the E. coli and P. aeruginosa cultures were used either undiluted or after a 1:2 dilution in sterile TSB. The C. albicans cultures were used either undiluted or following a 2-fold concentration by centrifugation. One of two means of inoculation was used to deliver a final concentration of approximately 10^5 colony-forming units (CFU)/mL of C. albicans, 10^5 spores/mL of A. niger, or 10^6 CFU/mL of bacteria. The primary method used a stainless steel pin replicator (Nalge Nunc International) mounted on a hand-operated bench-top press (Schmidt Technology Corporation) fitted with a custom-built microplate holder to dispense one microliter of each inoculum from a “master” plate containing 50-100 μL of culture into the wells of the test plate. The pin replicator was sterilized before and between inoculations by immersing in ethanol and flaming. […]

[5] = A. niger, plate 154C, day 3, MP and CHDM

`OCC1CCC(CO)CC1` (stereo not drawn) [1,4-CHDM, 1,4-cyclohexanedimethanol] showed a QA/a ([1]; CHDM alone (QA) or in combination with BA:DHA (a), plate 111A, day 1) of 1.73, a QA/a ([1]; CHDM alone (QA) or in combination with IPBC (a), plate 119A, day 1) of 1.73 and a QA/a ([1]; CHDM alone (QA) or in combination with IPBC (a), plate 119A, day 2) of 1.73. The QA/a ([1]; CHDM: MIC alone (QA) or conc. in combination with CP (a), plate 110A, day 1) was 1.73, the QA/a ([1]; CHDM: MIC alone (QA) or conc. in combination with CP (a), plate 110A, day 2) was 1.73 and the “QA, MIC of CHDM alone” value ([1]; day 1 of incubation, plate 108A (MP series)) was 1.73 weight percent. For the same compound, the “QA, MIC of CHDM alone” value ([1]; day 1 of incubation, plates 105A, 213A, 223A (PE series)) was 1.30 weight percent and 1.47 weight percent, the “QA, MIC of CHDM alone” value ([1]; day 2 of incubation, plate 108A (MP series)) was 1.73 weight percent and the “QA, MIC of CHDM alone” value ([1]; day 2 of incubation, plates 105A, 213A, 223A (PE series)) was 1.30 weight percent and 1.47 weight percent. The “QA/a: concentration of CHDM (MIC alone, or in the combination at an inhibitory concentration)” value ([1]; day 1) was 1.73 weight percent, the “SI (synergy index)” value ([1]; day 1) was 1.00 and the “QA/a: concentration of CHDM (MIC alone, or in the combination at an inhibitory concentration)” value ([1]; day 2) was 1.73 weight percent. For the same compound, the “SI (synergy index)” value ([1]; day 2) was 1.00, the “QA/a: concentration of CHDM alone (QA, MIC)” value ([1]; Table 44, Day 1) was 1.73 weight percent and the “QA/a: concentration of CHDM alone (QA, MIC)” value ([1]; Table 44, Day 2) was 1.73 weight percent. The “QA/a: concentration of CHDM alone (QA, MIC)” value ([1]; Table 47, Day 1) was 1.73 weight percent, the “QA/a: concentration of CHDM alone (QA, MIC)” value ([1]; Table 47, Day 2) was 1.73 weight percent and the “Enhancement of the preservative (inhibitory) action of Killem biocide (in words)” value ([2]; Killem biocide 200 ppm, 1,4-CHDM 0.2-0.5 wt %) was “enhanced the preservative (inhibitory) action of the Killem biocide”. The “Enhancement of the preservative (inhibitory) action of Killem biocide (in words)” value ([2]; biocide 50 ppm or 100 ppm, or 1,4-CHDM 0.1 wt %) was “No enhancement”, the “Growth (visual turbidity rating)” value ([2]; 1,4-CHDM 0.1% (v/v)) was 3 and the “Growth (visual turbidity rating)” value ([2]; 1,4-CHDM 0.2% (v/v)) was 3. For the same compound, the “Growth (visual turbidity rating)” value ([2]; 1,4-CHDM 0.3% (v/v)) was 3, the “Growth (visual turbidity rating)” value ([2]; 1,4-CHDM 0.4% (v/v)) was 3 and the “Growth (visual turbidity rating)” value ([2]; 1,4-CHDM 0.5% (v/v)) was 3. For the same compound, the “Growth (visual turbidity rating)” value ([3]; 1,4-CHDM 0.1% (v/v)) was 3, the “Growth (visual turbidity rating)” value ([3]; 1,4-CHDM 0.2% (v/v)) was 3 and the “Growth (visual turbidity rating)” value ([3]; 1,4-CHDM 0.3% (v/v)) was 3. For the same compound, the “Growth (visual turbidity rating)” value ([3]; 1,4-CHDM 0.4% (v/v)) was 3, the “Growth (visual turbidity rating)” value ([3]; 1,4-CHDM 0.5% (v/v)) was 3 and the “QA, MIC of CHDM alone” value ([4]; A. niger, day 2 of incubation, plates 123C, 217C (CG series)) was 4.50 weight percent and 3.11 weight percent. The “QA, MIC of CHDM alone” value ([4]; A. niger, day 3 of incubation, plate 123C (CG series)) was 3.11 weight percent, the “QA/a: concentration of CHDM (MIC alone, or in the combination at an inhibitory concentration)” value [4, 5] was 2.03 weight percent and the “SI (synergy index)” value [4, 5] was 1.00. For the same compound, the QA/a ([4]; CHDM alone (QA) or in combination with DMDM hydantoin (a), plate 196C, day 3) was 2.78, the QA/a ([4]; CHDM alone (QA) or in combination with IPBC (a), plate 259C, day 2) was 5.00 and the QA/a ([4]; CHDM alone (QA) or in combination with IPBC (a), plate 260C, day 3) was 6.50. The QA/a ([4]; CHDM: MIC alone (QA) or conc. in combination with BA:DHA (a), plate 195C, day 2) was 4.93, the QA/a ([4]; CHDM: MIC alone (QA) or conc. in combination with BA:DHA (a), plate 195C, day 3) was 4.93 and the QA/a ([4]; CHDM: MIC alone (QA) or conc. in combination with BA:DHA (a), plate 215C, day 2) was 4.50. For the same compound, the QA/a ([4]; CHDM: MIC alone (QA) or conc. in combination with BA:DHA (a), plate 215C, day 3) was 4.50, the QA/a ([4]; CHDM: MIC alone (QA) or conc. in combination with CP (a), plate 194C, day 2) was 3.70 and the QA/a ([4]; CHDM: MIC alone (QA) or conc. in combination with CP (a), plate 194C, day 3) was 2.78. The QA/a ([4]; CHDM: MIC alone (QA) or conc. in combination with MIT (a), plate 193C, day 2) was 4.93, the QA/a ([4]; CHDM: MIC alone (QA) or conc. in combination with MIT (a), plate 193C, day 3) was 2.78 and the QA/a ([4]; CHDM: MIC alone (QA) or conc. in combination with MIT (a), plate 214C, day 2) was 4.50. The QA/a ([4]; CHDM: MIC alone (QA) or conc. in combination with MIT (a), plate 214C, day 3) was 6.00.
For `CCCCCCC(O)CO` (stereo not drawn) [CG, 1,2-octanediol], the “QB/b: concentration of CG (MIC alone, or in the combination at an inhibitory concentration)” value ([1]; day 1) was 0.16 weight percent, the “SI (synergy index)” value ([1]; day 1) was 1.00 and the “QB/b: concentration of CG (MIC alone, or in the combination at an inhibitory concentration)” value ([1]; day 2) was 0.16 weight percent. For the same compound, the “SI (synergy index)” value ([1]; day 2) was 1.00 and the “Synergism of antimicrobial agent in combination with 1,4-CHDM for A. niger (in words; in the 12th table the cell names the organism and table number)” value ([4]; Kull synergy index, synergistic when at least two results SI<1) was “A. niger (14)”.
